{
  "source": "ChEMBL document CHEMBL1136833",
  "about": "“Novel non-peptide inhibitors targeting death receptor-mediated apoptosis” (Bioorg Med Chem Lett, 2003)",
  "key": {"Jurkat [1]": {"system": "Jurkat", "experiment": "Effective dose to inhibit FasL-induced apoptosis in Jurkat cells (Type II)", "assay_type": "functional", "settings": "Homo sapiens, read-out: ED50 (the source's name)"}, "Jurkat [2]": {"system": "Jurkat", "experiment": "Effective dose to inhibit staurosporine-induced apoptosis in Jurkat cells (Type II)", "assay_type": "functional", "settings": "Homo sapiens, read-out: ED50 (the source's name)"}, "Jurkat [3]": {"system": "Jurkat", "experiment": "Cytotoxicity against Jurkat cell growth (Type II)", "assay_type": "functional, cell-based", "settings": "Homo sapiens"}, "SKW 6.4 [4]": {"system": "SKW 6.4", "experiment": "Cytotoxicity against SK W6.4 cell growth (Type I)", "assay_type": "functional, cell-based", "settings": "Homo sapiens"}, "SKW 6.4 [5]": {"system": "SKW 6.4", "experiment": "Effective dose to inhibit staurosporine-induced apoptosis in SK W6.4 cells (Type I)", "assay_type": "functional", "settings": "Homo sapiens, read-out: ED50 (the source's name)"}, "SKW 6.4 [6]": {"system": "SKW 6.4", "experiment": "Effective dose to inhibit FasL-induced apoptosis in SK W6.4 cells (Type I)", "assay_type": "functional", "settings": "Homo sapiens, read-out: ED50 (the source's name)"}, "Jurkat [7]": {"system": "Jurkat", "experiment": "Effective dose to inhibit FasL-induced apoptosis in Jurkat cells (Type II); NE=no effect", "assay_type": "functional, cell-based", "settings": "Homo sapiens"}, "Jurkat [8]": {"system": "Jurkat", "experiment": "Effective dose to inhibit staurosporine-induced apoptosis in Jurkat cells (Type II); NE=no effect", "assay_type": "functional, cell-based", "settings": "Homo sapiens"}, "SKW 6.4 [9]": {"system": "SKW 6.4", "experiment": "Effective dose to inhibit FasL-induced apoptosis in SK W6.4 cells (Type I); NE=no effect", "assay_type": "functional, cell-based", "settings": "Homo sapiens"}, "SKW 6.4 [10]": {"system": "SKW 6.4", "experiment": "Effective dose to inhibit staurosporine-induced apoptosis in SK W6.4 cells (Type I); NE=no effect", "assay_type": "functional, cell-based", "settings": "Homo sapiens"}},
  "note": "pEC50, pIC50: −log10 of the molar value. The source made the active and inactive calls. The rule behind the calls is not given here.",
  "data": [
    {"smiles": "C/C=C/C1=C(CO)[C@H](OC)[C@H]2O[C@H]2C1=O", "values": [
      {"measurement": "pEC50", "setting": "Jurkat [1]", "result": 4.60},
      {"measurement": "pEC50", "setting": "Jurkat [2]", "result": "< 4.10"},
      {"measurement": "pIC50", "setting": "Jurkat [3]", "result": "< 4.10"},
      {"measurement": "pIC50", "setting": "SKW 6.4 [4]", "result": "< 4.10"},
      {"measurement": "pEC50", "setting": "SKW 6.4 [5]", "result": "< 4.10"},
      {"measurement": "pEC50", "setting": "SKW 6.4 [6]", "result": 4.70}
    ]},
    {"smiles": "C/C=C/C1=C(CO)C(=O)[C@H]2O[C@H]2C1=O", "values": [
      {"measurement": "ED50", "setting": "Jurkat [7]", "result": "inactive"},
      {"measurement": "ED50", "setting": "Jurkat [8]", "result": "inactive"},
      {"measurement": "pIC50", "setting": "Jurkat [3]", "result": 5.10},
      {"measurement": "ED50", "setting": "SKW 6.4 [9]", "result": "inactive"},
      {"measurement": "ED50", "setting": "SKW 6.4 [10]", "result": "inactive"},
      {"measurement": "pIC50", "setting": "SKW 6.4 [4]", "result": 5.05}
    ]},
    {"smiles": "C/C=C/C1=C(CO)[C@H](O)[C@H]2O[C@H]2C1=O", "values": [
      {"measurement": "pEC50", "setting": "Jurkat [1]", "result": 5.22},
      {"measurement": "pEC50", "setting": "Jurkat [2]", "result": "< 4.10"},
      {"measurement": "pIC50", "setting": "Jurkat [3]", "result": "< 4.10"},
      {"measurement": "pIC50", "setting": "SKW 6.4 [4]", "result": "< 4.10"},
      {"measurement": "pEC50", "setting": "SKW 6.4 [5]", "result": "< 4.10"},
      {"measurement": "pEC50", "setting": "SKW 6.4 [6]", "result": 5.30}
    ]},
    {"smiles": "C/C=C/C1=C(CO)[C@@H](O)[C@@H]2O[C@@H]2C1=O", "values": [
      {"measurement": "pEC50", "setting": "Jurkat [1]", "result": 4.60},
      {"measurement": "pEC50", "setting": "Jurkat [2]", "result": "< 4.10"},
      {"measurement": "pIC50", "setting": "Jurkat [3]", "result": 4.22},
      {"measurement": "pIC50", "setting": "SKW 6.4 [4]", "result": 4.10},
      {"measurement": "pEC50", "setting": "SKW 6.4 [5]", "result": "< 4.10"},
      {"measurement": "pEC50", "setting": "SKW 6.4 [6]", "result": 4.70}
    ]},
    {"smiles": "CCCC/C=C/C1=C(CO)C(=O)[C@H]2O[C@H]2C1=O", "values": [
      {"measurement": "ED50", "setting": "Jurkat [7]", "result": "inactive"},
      {"measurement": "ED50", "setting": "Jurkat [8]", "result": "inactive"},
      {"measurement": "pIC50", "setting": "Jurkat [3]", "result": 5.00},
      {"measurement": "ED50", "setting": "SKW 6.4 [9]", "result": "inactive"},
      {"measurement": "ED50", "setting": "SKW 6.4 [10]", "result": "inactive"},
      {"measurement": "pIC50", "setting": "SKW 6.4 [4]", "result": 5.15}
    ]},
    {"smiles": "CCCC/C=C/C1=C(CO)[C@H](O)[C@H]2O[C@H]2C1=O", "values": [
      {"measurement": "ED50", "setting": "Jurkat [7]", "result": "inactive"},
      {"measurement": "ED50", "setting": "Jurkat [8]", "result": "inactive"},
      {"measurement": "pIC50", "setting": "Jurkat [3]", "result": 4.82},
      {"measurement": "ED50", "setting": "SKW 6.4 [10]", "result": "inactive"},
      {"measurement": "pIC50", "setting": "SKW 6.4 [4]", "result": 4.46},
      {"measurement": "pEC50", "setting": "SKW 6.4 [6]", "result": 5.00}
    ]},
    {"smiles": "C/C=C(\\C)C1=C(CO)[C@H](O)[C@H]2O[C@H]2C1=O", "values": [
      {"measurement": "pEC50", "setting": "Jurkat [1]", "result": 5.00},
      {"measurement": "pEC50", "setting": "Jurkat [2]", "result": "< 4.10"},
      {"measurement": "pIC50", "setting": "Jurkat [3]", "result": "< 4.10"},
      {"measurement": "pIC50", "setting": "SKW 6.4 [4]", "result": "< 4.10"},
      {"measurement": "pEC50", "setting": "SKW 6.4 [5]", "result": "< 4.10"},
      {"measurement": "pEC50", "setting": "SKW 6.4 [6]", "result": 5.00}
    ]},
    {"smiles": "C=CC1=C(CO)[C@H](O)[C@H]2O[C@H]2C1=O", "values": [
      {"measurement": "pEC50", "setting": "Jurkat [1]", "result": 5.22},
      {"measurement": "pEC50", "setting": "Jurkat [2]", "result": "< 4.10"},
      {"measurement": "pIC50", "setting": "Jurkat [3]", "result": "< 4.10"},
      {"measurement": "pIC50", "setting": "SKW 6.4 [4]", "result": "< 4.10"},
      {"measurement": "pEC50", "setting": "SKW 6.4 [5]", "result": "< 4.10"},
      {"measurement": "pEC50", "setting": "SKW 6.4 [6]", "result": 5.40}
    ]},
    {"smiles": "O=C1C(/C=C/c2ccccc2)=C(CO)[C@H](O)[C@H]2O[C@@H]12", "values": [
      {"measurement": "ED50", "setting": "Jurkat [7]", "result": "inactive"},
      {"measurement": "ED50", "setting": "Jurkat [8]", "result": "inactive"},
      {"measurement": "pIC50", "setting": "Jurkat [3]", "result": 4.70},
      {"measurement": "ED50", "setting": "SKW 6.4 [9]", "result": "inactive"},
      {"measurement": "ED50", "setting": "SKW 6.4 [10]", "result": "inactive"},
      {"measurement": "pIC50", "setting": "SKW 6.4 [4]", "result": 4.52}
    ]},
    {"smiles": "O=C1C=C(CO)[C@H](O)[C@H]2O[C@@H]12", "values": [
      {"measurement": "pEC50", "setting": "Jurkat [1]", "result": 4.74},
      {"measurement": "pEC50", "setting": "Jurkat [2]", "result": "< 4.10"},
      {"measurement": "pIC50", "setting": "Jurkat [3]", "result": "< 4.10"},
      {"measurement": "pIC50", "setting": "SKW 6.4 [4]", "result": "< 4.10"},
      {"measurement": "pEC50", "setting": "SKW 6.4 [5]", "result": "< 4.10"},
      {"measurement": "pEC50", "setting": "SKW 6.4 [6]", "result": 5.00}
    ]}
  ]
}
